Test systems include SNB-19; SK-MEL-5; SF-295; 786-0; OVCAR-3; TK-10; Hs-578T; LOX IMVI; UO-31; SF-268; M14; Malme-3M; HOP-92; SN12C; T47D; PC-3; BT-549; NCI-H522; OVCAR-4; SR.
Common to all, as to test: NCI-60 cell line screen, 48 h

Molecules are shown by their SMILES.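 All cell lines were grown in 96-well plates and treated with compound for 48 hours. Here, GI50 denotes the concentration required for 50% inhibition of growth.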 The source made the active and inactive calls. No stated cut-off is given here; in the data, active = GI50 up to about 1.1 µM and inactive = higher. A value given as a limit tells only on which side of the number the result lay.

In the case of `O=C1C=C(N2CCCC2)C(=O)c2c(O)ccc(O)c21`, the GI50 with SNB-19 was > 10 µM (inactive); with SK-MEL-5, 4.6 µM (inactive); in the test with SF-295, > 10 µM (inactive); with 786-0, > 10 µM (inactive); in the test on OVCAR-3 it was > 10 µM (inactive); in the test on TK-10, > 10 µM (inactive). Also, the GI50 is > 10 µM (inactive) in the test on Hs-578T; > 10 µM (inactive) with LOX IMVI; > 10 µM (inactive) in the test with UO-31; > 10 µM (inactive) in the test with SF-268; 6.32 µM (inactive) with M14; 3.93 µM (inactive) in the test on Malme-3M. Further, the GI50 with HOP-92, with SN12C, in the test on T47D, in the test with PC-3 and in the test on BT-549 was > 10 µM (inactive) in each case.
`CCC(=O)Nc1ccc(/N=N/N(C)C)cc1`: the GI50 was > 100 µM (inactive) in the test with SNB-19; 53.7 µM (inactive) in the test on SK-MEL-5; > 100 µM (inactive) with 786-0; > 100 µM (inactive) in the test on Hs-578T; 14.4 µM (inactive) with NCI-H522; 50.9 µM (inactive) with LOX IMVI. Besides, the GI50 in the test on UO-31 was > 100 µM (inactive); in the test with SF-268, > 100 µM (inactive); in the test on M14, > 100 µM (inactive); in the test with Malme-3M it was 2.13 µM (inactive); with HOP-92 it was 12.4 µM (inactive); in the test with SN12C, > 100 µM (inactive). For the same compound, the GI50 was 6.64 µM (inactive) in the test with T47D, > 100 µM (inactive) in the test with OVCAR-4, > 100 µM (inactive) in the test with PC-3 and > 100 µM (inactive) in the test on BT-549.
Take `CC(C)(Br)C(Br)CC/C(=C/CBr)CBr.CC(C)(Br)C(Br)CC/C(=C\CBr)CBr` (stereo unspecified): the GI50 in the test with SNB-19 was 14.4 µM (inactive); with SK-MEL-5, 4.5 µM (inactive); with SF-295, 3.46 µM (inactive); with 786-0, 1.95 µM (inactive); in the test with TK-10 it was 8.77 µM (inactive); with Hs-578T it was 19.1 µM (inactive). The GI50 in the test on NCI-H522 was 1.66 µM (inactive); in the test with LOX IMVI, 0.13 µM (active); in the test with UO-31, 14.3 µM (inactive); in the test on SR, 0.783 µM (active); with SF-268, 2.21 µM (inactive); in the test with M14, 2.02 µM (inactive). Besides, the GI50 with Malme-3M is 3.85 µM (inactive); with HOP-92 it was 4.33 µM (inactive); in the test with SN12C, 2 µM (inactive); in the test on T47D, 2.76 µM (inactive); in the test with OVCAR-4, 5.2 µM (inactive); with BT-549, 2.45 µM (inactive).
For the compound `CC1CC(N)=Nc2ccccc2N1` (stereo unspecified), the GI50 with SNB-19, with SK-MEL-5, with SF-295, in the test with 786-0, with OVCAR-3 and with TK-10 was > 100 µM (inactive) throughout. For the same compound, the GI50 with Hs-578T, in the test on NCI-H522, in the test with LOX IMVI, in the test with UO-31, with SF-268 and in the test on M14 was > 100 µM (inactive) each time. Moreover, the GI50 with Malme-3M was 58.2 µM (inactive); in the test on SN12C, > 100 µM (inactive); with OVCAR-4 it was > 100 µM (inactive); in the test with PC-3 it was > 100 µM (inactive); in the test on BT-549 it was > 100 µM (inactive).
Regarding `CCOC(=O)CO/N=C\C1=CC(=O)C2CC1C2(C)C` (stereo unspecified), the GI50 in the test on SNB-19, with SK-MEL-5, with SF-295, with 786-0, in the test with OVCAR-3 and with TK-10 was > 100 µM (inactive) throughout. Further, the GI50 with Hs-578T, with LOX IMVI, with UO-31, with SF-268, in the test with M14 and in the test with Malme-3M was > 100 µM (inactive) each time. Besides, the GI50 with SN12C, in the test on T47D, with PC-3 and with BT-549 was > 100 µM (inactive) in each case.
Consider `COc1ccc2oc(=O)c(CC=C(C)C)c(O)c2c1C`, for which the GI50 in the test with SNB-19, in the test on SK-MEL-5, in the test with SF-295, in the test with 786-0, in the test on OVCAR-3 and in the test on TK-10 was > 100 µM (inactive) throughout. In addition, the GI50 in the test on Hs-578T, in the test with NCI-H522, in the test with LOX IMVI, in the test on UO-31, with SR and with SF-268 was > 100 µM (inactive) throughout. Also, the GI50 in the test with M14, in the test with Malme-3M, with SN12C, with T47D, in the test on PC-3 and in the test with BT-549 was > 100 µM (inactive) each time.
With `CCOP(=O)(OCC)C(N)Cc1ccc(OC)c(OC)c1` (stereo unspecified), the GI50 in the test with SNB-19, with SK-MEL-5, with SF-295, with 786-0, in the test on OVCAR-3 and in the test on TK-10 was > 100 µM (inactive) in each case. For the same compound, the GI50 with NCI-H522, with UO-31, with SR, in the test with SF-268, in the test on M14 and with Malme-3M was > 100 µM (inactive) throughout. Besides, the GI50 in the test with HOP-92, with SN12C, in the test with T47D, in the test on OVCAR-4, with PC-3 and with BT-549 was > 100 µM (inactive) each time.
`COc1ccc(/C=C2/S/C(=N\c3ccccc3)N(NC(=O)Cc3ccccc3)C2=O)cc1`: the GI50 with SNB-19, in the test on SK-MEL-5, with SF-295, with 786-0, with OVCAR-3 and in the test with TK-10 was > 100 µM (inactive) in each case. Besides, the GI50 in the test on Hs-578T was > 100 µM (inactive); in the test on UO-31 it was 92.3 µM (inactive); with SF-268, > 100 µM (inactive); in the test with M14, > 100 µM (inactive); in the test on HOP-92 it was > 100 µM (inactive); in the test on SN12C, > 100 µM (inactive). In addition, the GI50 is > 100 µM (inactive) in the test on T47D, 74.3 µM (inactive) with OVCAR-4 and > 100 µM (inactive) with BT-549.
In the case of `CC(C)C(=O)Oc1cc2c(=O)oc3c(OC(=O)C(C)C)c(OC(=O)C(C)C)cc4c(=O)oc(c1OC(=O)C(C)C)c2c34`, the GI50 in the test on SNB-19, with SK-MEL-5, in the test with SF-295, in the test with 786-0, in the test with OVCAR-3 and in the test on TK-10 was > 100 µM (inactive) in each case. Further, the GI50 in the test on Hs-578T, in the test on NCI-H522, in the test with LOX IMVI, with UO-31, in the test on SF-268 and in the test with M14 was > 100 µM (inactive) each time. In addition, the GI50 in the test on Malme-3M, in the test with HOP-92, in the test on SN12C, in the test on OVCAR-4, in the test on PC-3 and with BT-549 was > 100 µM (inactive) each time.
As to `O=C(O)C1CC(c2ccccc2)=NN1c1ccccc1` (stereo unspecified), the GI50 in the test on SNB-19 is > 100 µM (inactive); in the test on SK-MEL-5 it was 34.4 µM (inactive); with SF-295, 64.6 µM (inactive); in the test with 786-0, 56.9 µM (inactive); in the test on OVCAR-3, 42 µM (inactive); in the test with TK-10, 64 µM (inactive). In addition, the GI50 in the test with Hs-578T is 25.4 µM (inactive); in the test on NCI-H522, 27.4 µM (inactive); in the test with LOX IMVI it was 41.9 µM (inactive); in the test on UO-31, 39.9 µM (inactive); with SF-268, 81.1 µM (inactive); in the test on M14 it was 75 µM (inactive). Besides, the GI50 in the test with Malme-3M was 32.5 µM (inactive); in the test with HOP-92, 69.3 µM (inactive); in the test with SN12C, > 100 µM (inactive); with T47D, 52 µM (inactive); in the test with OVCAR-4, 67.6 µM (inactive); with PC-3, 41 µM (inactive). Also, in the test with BT-549, the GI50 was 66.5 µM (inactive).
Turning to `C[C@@H]1O[C@@H](O[C@H]2CC[C@]3(C=O)[C@H]4CC[C@]5(C)[C@@H](C6=CC(=O)OC6)CC[C@]5(O)[C@@H]4CC[C@]3(O)C2)[C@H](O)[C@H](O)[C@H]1O` [CONVALLATOXIN], the GI50 in the test with SNB-19 is 0.0178 µM (active); in the test with SK-MEL-5 it was 2.05e-05 µM (active); with SF-295, 2.73e-05 µM (active); with 786-0, 8.79e-06 µM (active); in the test with OVCAR-3, 8.91e-06 µM (active); in the test with TK-10 it was 2.88e-05 µM (active). The GI50 in the test on Hs-578T is < 0.01 µM (active); in the test on NCI-H522, 9.93e-06 µM (active); in the test on LOX IMVI, 2.93e-05 µM (active); with UO-31 it was < 0.01 µM (active); in the test on SF-268 it was 1.21e-05 µM (active); with M14 it was 0.0146 µM (active). In addition, the GI50 in the test on Malme-3M was 3.71e-05 µM (active); in the test on HOP-92 it was 4.83e-05 µM (active); in the test on SN12C, 8.69e-06 µM (active); in the test on T47D, 5.62e-05 µM (active); in the test with OVCAR-4, 7.28e-06 µM (active); in the test on PC-3 it was 2.62e-05 µM (active). The GI50 in the test on BT-549 was 1.32e-05 µM (active).

Values taken from ChEMBL document CHEMBL1201862, “PubChem BioAssay data set” (2004).
